According to patent publication US11618742B2, “Radical polymerization initiator, composition containing same, cured product of composition, production method for cured product, and compound” (ADEKA CORPORATION, priority 2018, dated 2023):

Assays:
[1] = Solubility in water; format: physicochemical; conditions: 25° C., RH 65%, 100 g deionized water, added 0.1 g at a time
Description: Specifically, the measurement is performed by adding the compound in an amount of 0.1 g at a time.

[2] = Maximum absorption wavelength (absorption spectrum, spectrophotometer); format: physicochemical
Source text: (2) load the measurement aqueous solution to a quartz cell (optical path length=10 mm, thickness 1.25 mm), and measure the absorption spectrum using a spectrophotometer (e.g., visible-ultraviolet absorption spectrometer V-670 manufactured by JASCO Corporation). As the absorption spectrum of the measurement aqueous solution, a corrected absorption spectrum obtained by measuring the absorption spectrum of water alone in advance and deducting this absorption spectrum of water from the absorption spectrum of the measurement aqueous solution is used. […] (2) The thus obtained measurement aqueous solutions were each loaded to a quartz cell (optical path length—10 mm, thickness 1.25 mm), and an absorption spectrum was measured using a spectrophotometer (e.g., visible-ultraviolet absorption spectrometer V-670 manufactured by JASCO Corporation). […] Further, as the absorption spectrum, a corrected absorption spectrum obtained by measuring the absorption spectrum of the solvent itself in advance and deducting this absorption spectrum of the solvent from the absorption spectrum of the measurement solution was used.

[3] = 0.1%-by-mass aqueous solution, range of 300 nm to 600 nm
[4] = measurement solution in acetonitrile (low solubility in water)

Maximum absorption wavelength [2, 3] | SMILES | Solubility in 100 parts by mass of water [1] | Maximum absorption wavelength [2, 4]
– | O=C(O)c1cccc2c(=O)c3ccccc3sc12 [Compound 1] | 0.9 parts by mass | –
– | O=C(O)c1cccc2c(=O)c3ccccc3sc12 [Compound 61] | 1.2 parts by mass | –
270 nm | CC(C)(O)C(=O)c1ccc(OCCO)cc1 [Compound 101] | 0.8 parts by mass | –
– | O=C(c1ccccc1)c1ccccc1 [Compound 103, benzophenone] | – | 253 nm
– | CC12CCC(C(=O)C1=O)C2(C)C (centres unmarked) [Compound 104, camphor quinone] | <0.1 parts by mass | 460 nm
371 nm | Cc1cc(C)c(C(=O)P(=O)(O)c2ccccc2)c(C)c1 [Compound 105] | ≥50 parts by mass | –
– | O=C(O)c1cccc2c(=O)c3ccccc3sc12 [Compound 106, thioxanthone carboxylic acid] | <0.1 parts by mass | 391 nm
